Assay results published in patent US7326698B2, “Prostaglandin analogs” (Allergan, Inc., priority 2004, dated 2008).

What was measured:
[1] = target: T1, hEP4/Gqs5 (Homo sapiens, UniProt P35408); test: FLIPR calcium signal, HEK-293(EBNA) cells; type: cell-based; conditions: read-out: Functional Data (EC50 in nM) hEP4
T1 construct: expressed in transfected cells; host or cells: HEK-293(EBNA)
Protocol: (§1) Methods for FLIPR™ Studies
(§2) HEK-293(EBNA) cells, stably expressing one type or subtype of recombinant human prostaglandin receptors (prostaglandin receptors expressed: hDP/Gqs5; hEP1; hEP2/Gqs5; hEP3A/Gqi5; hEP4/Gqs5; hFP; hIP; hTP), are cultured in 100 mm culture dishes in high-glucose DMEM medium containing 10% fetal bovine serum, 2 mM 1-glutamine, 250 μg/ml geneticin (G418) and 200 μg/ml hygromycin B as selection markers, and 100 units/ml penicillin G, 100 μg/ml streptomycin and 0.25 μg/ml amphotericin B.
(§3) (b) Calcium Signal Studies On the FLIPR™
(§4) Cells are seeded at a density of 5×10^4 cells per well in Biocoat® Poly-D-lysine-coated black-wall, clear-bottom 96-well plates (Becton-Dickinson) and allowed to attach overnight in an incubator at 37° C. Cells are then washed two times with HBSS-HEPES buffer (Hanks Balanced Salt Solution without bicarbonate and phenol red, 20 mM HEPES, pH 7.4) using a Denley Cellwash plate washer (Labsystems). After 45 minutes of dye-loading in the dark, using the calcium-sensitive dye Fluo-4 AM at a final concentration of 2 μM, plates are washed four times with HBSS-HEPES buffer to remove excess dye leaving 100 μl in each well. Plates are re-equilibrated to 37° C. for a few minutes.
(§5) Cells are excited with an Argon laser at 488 nm, and emission is measured through a 510-570 nm bandwidth emission filter (FLIPR™, Molecular Devices, Sunnyvale, Calif.). Drug solution is added in a 50 μl volume to each well to give the desired final concentration. The peak increase in fluorescence intensity is recorded for each well. On each plate, four wells each serve as negative (HBSS-HEPES buffer) and positive controls (standard agonists: BW245C (hDP); PGE2 (hEP1; hEP2/Gqs5; hEP3A/Gqi5; hEP4/Gqs5); PGF2α, (hFP); carbacyclin (hIP); U-46619 (hTP), depending on receptor). The peak fluorescence change in each drug-containing well is then expressed relative to the controls.
(§6) Compounds are tested in a high-throughput (HTS) or concentration-response (CoRe) format. In the HTS format, forty-four compounds per plate are examined in duplicates at a concentration of 10^−5 M. To generate concentration-response curves, four compounds per plate are tested in duplicates in a concentration range between 10^−5 and 10^−11 M. The duplicate values are averaged. In either, HTS or CoRe format each compound is tested on at least 3 separate plates using cells from different passages to give an n≧3.

[2] = target: T2, hTP (Homo sapiens, UniProt P21731); test: FLIPR calcium signal, HEK-293(EBNA) cells; type: cell-based; conditions: read-out: Functional Data (EC50 in nM) hTP
T2 construct: expressed in transfected cells; host or cells: HEK-293(EBNA)
T2 sequence (P21731 1-343): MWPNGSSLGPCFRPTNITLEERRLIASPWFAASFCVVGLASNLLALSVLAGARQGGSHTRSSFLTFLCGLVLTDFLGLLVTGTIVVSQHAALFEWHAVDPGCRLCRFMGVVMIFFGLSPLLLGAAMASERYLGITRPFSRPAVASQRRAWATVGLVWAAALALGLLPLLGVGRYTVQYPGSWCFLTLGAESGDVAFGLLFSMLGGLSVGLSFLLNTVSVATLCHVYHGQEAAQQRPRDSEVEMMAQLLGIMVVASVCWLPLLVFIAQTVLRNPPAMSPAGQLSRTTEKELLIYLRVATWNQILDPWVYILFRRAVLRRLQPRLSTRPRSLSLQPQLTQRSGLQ
Protocol: as §1, §2, §3, §4, §5, §6

[3] = target: T3, hIP (Homo sapiens, UniProt P43119); test: FLIPR calcium signal, HEK-293(EBNA) cells; type: cell-based; conditions: read-out: Functional Data (EC50 in nM) hIP
T3 construct: expressed in transfected cells; host or cells: HEK-293(EBNA)
Protocol: as §1, §2, §3, §4, §5, §6

[4] = target: T4, hEP3A/Gqi5 (Homo sapiens, UniProt P43115); test: FLIPR calcium signal, HEK-293(EBNA) cells; type: cell-based; conditions: read-out: Functional Data (EC50 in nM) hEP3A
T4 construct: expressed in transfected cells; host or cells: HEK-293(EBNA)
T4 sequence (P43115 1-390): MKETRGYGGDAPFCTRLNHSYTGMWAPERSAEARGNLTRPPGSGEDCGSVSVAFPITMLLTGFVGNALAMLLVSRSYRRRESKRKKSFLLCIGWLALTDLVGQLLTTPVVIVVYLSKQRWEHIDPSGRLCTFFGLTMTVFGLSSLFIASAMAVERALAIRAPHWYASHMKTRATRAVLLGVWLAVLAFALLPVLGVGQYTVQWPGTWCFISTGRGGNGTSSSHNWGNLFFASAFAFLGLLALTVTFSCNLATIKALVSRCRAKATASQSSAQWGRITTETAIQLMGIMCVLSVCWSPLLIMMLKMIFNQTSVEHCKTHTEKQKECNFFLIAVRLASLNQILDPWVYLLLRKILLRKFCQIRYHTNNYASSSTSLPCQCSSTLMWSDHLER
Protocol: as §1, §2, §3, §4, §5, §6

[5] = target: T5, hEP4 (Homo sapiens, UniProt P35408); test: Radioligand binding, HEK-293 cells stably expressing EP4 receptor; conditions: competition vs 5 nM [3H]-PGE2
T5 construct: expressed in transfected cells; host or cells: HEK-293 (membrane fraction)
Protocol: Cells Stably Expressing EP1, EP2, EP4 and FP Receptors
HEK-293 cells stably expressing the human or feline FP receptor, or EP1, EP2, or EP4 receptors are washed with TME buffer, scraped from the bottom of the flasks, and homogenized for 30 sec using a Brinkman PT 10/35 polytron. TME buffer is added to achieve a final 40 ml volume in the centrifuge tubes (the composition of TME is 100 mM TRIS base, 20 mM MgCl2, […]; 10N HCl is added to achieve a pH of 7.4).
The cell homogenate is centrifuged at 19000 r.p.m. for 20 min at 4° C. using a Beckman Ti-60 rotor. The resultant pellet is resuspended in TME buffer to give a final 1 mg/ml protein concentration, as determined by Biorad assay. Radioligand binding competition assays vs. [^3H-]17-phenyl PGF2[…](5 nM) are performed in a 100 μl volume for 60 min. Binding reactions are started by adding plasma membrane fraction. The reaction is terminated by the addition of 4 ml ice-cold TRIS-HCl buffer and rapid filtration through glass fiber GF/B filters using a Brandel cell harvester. The filters are washed 3 times with ice-cold buffer and oven dried for one hour.
[^3H-] PGE2 (specific activity 180 Ci mmol) is used as the radioligand for EP receptors. [^3H] 17-phenyl PGF2[…]is employed for FP receptor binding studies. […] 17-phenyl PGF2[…]and non-specific binding determined with 10^−5M of unlabeled PGE2, or 17-phenyl PGF2[…], according to receptor subtype studied.

T1 sequence (P35408 whole entry): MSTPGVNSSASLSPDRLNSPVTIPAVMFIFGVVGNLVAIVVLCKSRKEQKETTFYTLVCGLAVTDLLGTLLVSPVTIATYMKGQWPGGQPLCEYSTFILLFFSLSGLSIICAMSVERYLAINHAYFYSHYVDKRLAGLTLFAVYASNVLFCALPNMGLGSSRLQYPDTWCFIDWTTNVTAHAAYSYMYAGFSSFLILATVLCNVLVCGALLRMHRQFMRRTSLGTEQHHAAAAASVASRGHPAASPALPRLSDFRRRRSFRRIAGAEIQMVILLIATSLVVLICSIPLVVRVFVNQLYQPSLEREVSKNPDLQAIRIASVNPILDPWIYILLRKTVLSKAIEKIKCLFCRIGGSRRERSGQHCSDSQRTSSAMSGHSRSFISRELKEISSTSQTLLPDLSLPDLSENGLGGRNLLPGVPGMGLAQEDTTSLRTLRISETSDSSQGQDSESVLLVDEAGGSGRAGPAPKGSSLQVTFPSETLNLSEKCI
T5 sequence (P35408 whole entry): as above
T3 sequence (P43119 whole entry): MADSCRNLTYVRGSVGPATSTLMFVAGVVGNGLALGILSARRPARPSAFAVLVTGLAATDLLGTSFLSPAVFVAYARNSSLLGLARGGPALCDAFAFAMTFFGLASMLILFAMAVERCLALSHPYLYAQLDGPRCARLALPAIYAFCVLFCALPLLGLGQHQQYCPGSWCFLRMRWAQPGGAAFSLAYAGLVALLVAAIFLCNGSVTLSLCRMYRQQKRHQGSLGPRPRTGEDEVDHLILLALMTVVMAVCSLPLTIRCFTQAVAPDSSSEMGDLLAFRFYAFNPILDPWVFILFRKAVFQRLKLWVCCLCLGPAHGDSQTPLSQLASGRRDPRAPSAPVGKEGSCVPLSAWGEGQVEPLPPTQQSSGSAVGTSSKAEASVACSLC

SMILES	EC50 [1]	other results
O=C(O)CCCC#CCN1C(=O)CCCCC1C=CC(=O)Cc1ccccc1 (centres unmarked)	> 10000 nM	
O=C(O)CCCCCCN1C(=O)CCCCC1CCC(O)Cc1ccccc1 (centres unmarked)	451 nM	EC50 [2]: 549 nM; EC50 [3]: 1640 nM
COC(=O)CCC/C=C\CN1C(=O)CCCCC1C=CC(O)Cc1ccccc1 (centres unmarked)	> 10000 nM	
O=C(O)CCC/C=C\CN1C(=O)CCCCC1C=CC(O)Cc1ccccc1 (centres unmarked)	266 nM	EC50 [2]: 221 nM
COC(=O)CCCCCCN1C(=O)CCCCC1CCC(O)Cc1ccccc1 (centres unmarked)	3280 nM	EC50 [4]: > 10000 nM
COC(=O)CCCCCCN1C(=O)CCCCC1CCC(=O)Cc1ccccc1 (centres unmarked)	> 10000 nM	
COC(=O)CCC/C=C\CN1C(=O)CCCCC1CCC(=O)Cc1ccccc1 (centres unmarked)	13300 nM	IC50 [5]: > 10000 nM
O=C(O)CCCCCCN1C(=O)CCCCC1C=CC(O)Cc1ccccc1 (centres unmarked)	> 10000 nM	
COC(=O)CCCCCCN1C(=O)CCCCC1C=CC(=O)Cc1ccccc1 (centres unmarked)	> 10000 nM	
O=C(O)CCCC#CCN1C(=O)CCCCC1CCC(O)Cc1ccccc1 (centres unmarked)	2000 nM	EC50 [2]: 112 nM
O=C(O)CCCCCCN1C(=O)CCCCC1CCC(=O)Cc1ccccc1 (centres unmarked)	> 10000 nM	
COC(=O)CCCCCCN1C(=O)CCCCC1C=CC(O)Cc1ccccc1 (centres unmarked) [drawing 40]	> 10000 nM	
COC(=O)CCCC#CCN1C(=O)CCCCC1C=CC(O)Cc1ccccc1 (centres unmarked)	3080 nM	
COC(=O)CCCC#CCN1C(=O)CCCCC1CCC(O)Cc1ccccc1 (centres unmarked)	> 10000 nM	
O=C(O)CCCC#CCN1C(=O)CCCCC1C=CC(O)Cc1ccccc1 (centres unmarked)	1230 nM	EC50 [2]: 278 nM
COC(=O)CCC/C=C\CN1C(=O)CCCCC1CCC(O)Cc1ccccc1 (centres unmarked)	2140 nM	
COC(=O)CCCC#CCN1C(=O)CCCCC1CCC(=O)Cc1ccccc1 (centres unmarked)	> 10000 nM	
O=C(O)CCC/C=C\CN1C(=O)CCCCC1CCC(O)Cc1ccccc1 (centres unmarked)	116 nM	IC50 [5]: > 10000 nM
O=C(O)CCCCCCN1C(=O)CCCCC1C=CC(=O)Cc1ccccc1 (centres unmarked)	> 10000 nM	
O=C(O)CCC/C=C\CN1C(=O)CCCCC1CCC(=O)Cc1ccccc1 (centres unmarked)	> 10000 nM	
COC(=O)CCCCCCN1C(=O)CCCCC1C=CC(O)Cc1ccccc1 (centres unmarked) [drawing 36]	> 10000 nM	
O=C(O)CCCC#CCN1C(=O)CCCCC1CCC(=O)Cc1ccccc1 (centres unmarked)	2390 nM	EC50 [2]: 41 nM
COC(=O)CCCC#CCN1C(=O)CCCCC1C=CC(=O)Cc1ccccc1 (centres unmarked)	> 10000 nM	
